Results reported in paper PMC12448638, “The association between diet estrogenicity in exotic felids and poor spermatozoa quality in tigers (Panthera tigris)” (Biology of Reproduction, 2025).
pEC50: −log10 of the molar value. Where two headings read alike, the source gives them in different places.

What was measured:
Assay in all cases: 3xERE luciferase reporter activation, HEK293
ST ERβ = tested on: T1, ST ERβ; assay type: cell-based, Panthera tigris sumatrae; conditions: agonist, 24 h, 37 °C
T1 construct: gene ESR2; full-length ESR2 ORF (1653 bp, about 550 aa), codon-optimised, pcDNA3.1+, HEK293; residues S31, S40, V138, A147, E361, R433, E550

ST ERα = target: T2, ST ERα (Panthera tigris, UniProt Z9XQL7S1Y6); assay type: cell-based
T2 construct: full-length ESR1 ORF (1788 bp, about 595 aa), codon-optimised, pcDNA3.1+, HEK293; residues S53, P76, T496, S585
T2 sequence (Z9XQL7S1Y6 1-595): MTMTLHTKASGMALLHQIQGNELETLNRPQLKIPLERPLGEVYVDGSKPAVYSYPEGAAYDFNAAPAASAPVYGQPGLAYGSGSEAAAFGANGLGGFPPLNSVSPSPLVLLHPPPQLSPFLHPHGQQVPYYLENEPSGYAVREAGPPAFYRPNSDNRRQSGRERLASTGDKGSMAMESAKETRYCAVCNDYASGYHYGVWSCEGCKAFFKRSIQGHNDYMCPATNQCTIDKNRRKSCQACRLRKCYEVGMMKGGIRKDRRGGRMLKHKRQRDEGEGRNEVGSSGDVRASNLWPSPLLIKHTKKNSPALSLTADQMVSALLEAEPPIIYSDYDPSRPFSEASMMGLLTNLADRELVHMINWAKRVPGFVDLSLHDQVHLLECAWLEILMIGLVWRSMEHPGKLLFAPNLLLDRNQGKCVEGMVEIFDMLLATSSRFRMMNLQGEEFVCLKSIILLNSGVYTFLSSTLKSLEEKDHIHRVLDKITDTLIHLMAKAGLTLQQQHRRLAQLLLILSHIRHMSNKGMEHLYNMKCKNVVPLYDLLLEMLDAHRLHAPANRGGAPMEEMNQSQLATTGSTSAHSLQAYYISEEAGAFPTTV

SL ERα = tested on: T3, SL ERα; assay type: cell-based, Panthera uncia; conditions: agonist, 24 h, 37 °C, corrected for constitutive activity
T3 construct: gene ESR1; full-length ESR1 ORF (1788 bp, about 595 aa), codon-optimised, pcDNA3.1+, HEK293; residues S53, S76, T496, T585

SL ERβ = target: T4, SL ERβ (Panthera uncia, UniProt Z9GFH5XYU7); assay type: cell-based; conditions: agonist; 24 h, 37 °C; normalised to β-gal and maximal E2 activation; read-out: SL ER⍺ / EC50
T4 construct: full-length ESR2 ORF (1653 bp, about 550 aa), not codon-optimised, pcDNA3.1+, HEK293; residues S31, S40, I138, A147, G361, R433, Q550

[1] = normalised to β-gal, read-out: EC50
[2] = normalised to β-gal and maximal E2 activation, read-out: ST ER⍺ / EC50
[3] = normalised to β-gal and maximal E2 activation, read-out: SL ER⍺ / EC50

| Compound | pEC50 (ST ERβ; [1]) | pEC50 (ST ERα; read-out: EC50) | pEC50 (SL ERα; [1]) | pEC50 (SL ERβ) | pEC50 (ST ERβ; [2]) | pEC50 (ST ERα; read-out: ST ER⍺ / EC50) | pEC50 (SL ERα; [3]) |
| --- | --- | --- | --- | --- | --- | --- | --- |
| C[C@]12CC[C@@H]3c4ccc(O)cc4CC[C@H]3[C@@H]1CC[C@@H]2O [E2, 17β-estradiol] | 10.39 | 11.21 | 11.01 | – | – | – | – |
| O=c1oc2cc(O)ccc2c2oc3cc(O)ccc3c12 [COUM, coumestrol] | – | – | – | 7.59 | 8.09 | 6.88 | 7.38 |
| O=c1c(-c2ccc(O)cc2)coc2cc(O)ccc12 [DAID, daidzein] | – | – | – | – | 6.10 | – | – |
| O=c1c(-c2ccc(O)cc2)coc2cc(O)cc(O)c12 [GEN, genistein] | – | – | – | 6.54 | 7.65 | 5.72 | 5.78 |
